“And” between values parts separate entries of the source, which are not always exact repeats. Identical values can stand only once. Where only a bound is given, the exact number is not on record here.

Test [1] deals with T1, Alpha-2C adrenergic receptor (Homo sapiens, UniProt P18825).
T1 sequence (P18825 whole entry): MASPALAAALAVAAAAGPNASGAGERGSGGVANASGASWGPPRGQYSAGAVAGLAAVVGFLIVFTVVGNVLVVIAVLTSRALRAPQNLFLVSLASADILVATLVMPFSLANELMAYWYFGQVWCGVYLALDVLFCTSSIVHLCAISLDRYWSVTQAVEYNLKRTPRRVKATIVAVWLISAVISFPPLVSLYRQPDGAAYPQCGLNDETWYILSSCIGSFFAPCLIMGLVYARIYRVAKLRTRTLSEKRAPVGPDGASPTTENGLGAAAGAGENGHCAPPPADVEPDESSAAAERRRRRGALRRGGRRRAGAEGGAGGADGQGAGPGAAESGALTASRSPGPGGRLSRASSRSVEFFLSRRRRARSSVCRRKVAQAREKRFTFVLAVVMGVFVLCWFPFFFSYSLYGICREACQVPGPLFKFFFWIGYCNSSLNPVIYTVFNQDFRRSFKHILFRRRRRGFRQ

The target of test [2] is T2, Alpha-2A adrenergic receptor (Homo sapiens, UniProt P08913).
T2 sequence (P08913 whole entry): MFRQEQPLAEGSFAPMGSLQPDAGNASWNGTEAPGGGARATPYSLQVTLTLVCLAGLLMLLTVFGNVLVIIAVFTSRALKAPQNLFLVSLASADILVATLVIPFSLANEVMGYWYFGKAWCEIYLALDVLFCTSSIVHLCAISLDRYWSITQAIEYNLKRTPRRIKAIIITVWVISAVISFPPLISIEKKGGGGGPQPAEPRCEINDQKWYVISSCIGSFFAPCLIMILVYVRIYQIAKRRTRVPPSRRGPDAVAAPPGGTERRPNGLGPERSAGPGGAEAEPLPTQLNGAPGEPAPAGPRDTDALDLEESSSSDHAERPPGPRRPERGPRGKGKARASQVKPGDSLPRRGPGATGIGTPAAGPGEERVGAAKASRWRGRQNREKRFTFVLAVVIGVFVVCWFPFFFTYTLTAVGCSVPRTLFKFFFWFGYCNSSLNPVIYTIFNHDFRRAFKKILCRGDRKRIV

For test [3], the target named is T3, Alpha-2A adrenergic receptor (Mus musculus, UniProt Q1HL33).
T3 sequence (Q1HL33 whole entry): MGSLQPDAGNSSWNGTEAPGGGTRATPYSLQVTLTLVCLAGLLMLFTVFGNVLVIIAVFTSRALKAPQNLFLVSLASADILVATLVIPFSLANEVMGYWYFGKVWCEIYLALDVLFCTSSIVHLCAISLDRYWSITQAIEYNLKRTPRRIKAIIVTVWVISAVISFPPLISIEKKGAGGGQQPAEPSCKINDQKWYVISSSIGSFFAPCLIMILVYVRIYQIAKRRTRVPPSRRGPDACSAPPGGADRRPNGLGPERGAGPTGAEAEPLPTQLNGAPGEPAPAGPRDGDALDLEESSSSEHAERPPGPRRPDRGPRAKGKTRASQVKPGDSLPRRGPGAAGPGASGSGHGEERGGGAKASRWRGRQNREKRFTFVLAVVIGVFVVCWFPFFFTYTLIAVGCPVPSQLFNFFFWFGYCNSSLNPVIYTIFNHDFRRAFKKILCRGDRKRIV

As to `Fc1cccc(Cl)c1C1CC2=NCCN2C1` (centres undefined) [CAS_67249-51-8], the inhibition constant (Ki) (in general, a dissociation constant, usually derived from enzyme kinetics or from competition with a known ligand) in test [1] came to 282 nM; in test [2], 7.94 nM.

For the compound `CC(C)NCC(O)c1ccc(O)c(O)c1` (stereo not drawn) [Isoproterenol,(+)], in test [3], the Ki was over 10000 nM.

As for `CCn1ccnc1CC1COc2ccccc2O1` (centres undefined) [NSC_133621], the Ki in test [1] was 151 nM; in test [2], 316 nM.

As to `Clc1cccc(Cl)c1N=C1NCCN1` [2-(2,6-dichloroanilino)-2-imidazoline], the Ki in test [3] was 40.7 nM. This lies in the double-digit nanomolar range.

For `CN1CCC2(CCN3CCc4c(oc5ccccc45)C3C2)N(C)C1=O` (centres undefined) [MK-912], the inhibition constant Ki is 0.07 nM in test [1] and 0.85 nM in test [2].

With `CC(N)C(O)c1ccc(O)c(O)c1` (stereo not drawn) [alpha-Methyl-(+/-)norepinephrine,(+/-)], the inhibition constant (Ki) in test [1] stood at 2880 nM; in test [2], 3630 nM.

For the compound `Cc1cccc(C)c1N=C1NCCCS1` [(5,6-Dihydro-4H-[1,3]thiazin-2-yl)-(2,6-dimethyl-phenyl)-amine], the inhibition constant (Ki) in test [3] is 2400 nM; in test [1] it was over 10000 nM; in test [2], 5750 nM.

As to `Cc1cc(C(C)(C)C)c(O)c(C)c1CC1=NCCN1` [SMR000059324], the Ki in test [3] was 15.5 nM and 25.7 nM.

In the case of `Nc1cc(Cl)c(N=C2NCCN2)c(Cl)c1` [p-AMINOCLONIDINE], the inhibition constant (Ki) amounted to 21.4 nM in test [1] and 7.94 nM in test [2].

For the compound `Cc1cc(C(C)(C)C)cc(C)c1CC1=NCCN1` [SMR000058526], the Ki was 25.7 nM and 24 nM in test [3]; 129 nM in test [1]; 15.1 nM in test [2].

Take `c1ccc2c(CC3=NCCN3)cccc2c1` [Naphazoline]: the Ki is 11.5 nM and 17 nM in test [3]; 407 nM in test [1]; 20.9 nM in test [2].

Take `c1ccc2ccccc2c1` [naphtaline]: the inhibition constant Ki is 7.76 nM and 9.33 nM in test [3]; 3.31 nM in test [1]; 4.57 nM in test [2].

Take `c1cc2c(c(NC3=NCCN3)c1)CCCC2`: the Ki in test [3] turned out to be 15.5 nM; in test [1], 275 nM; in test [2], 31.6 nM.

With `N=C(N)NC(=O)Cc1c(Cl)cccc1Cl` [NSC_3519], the Ki in test [3] turned out to be 20.4 nM. This lies in the double-digit nanomolar range.

Turning to `Oc1ccc2c(c1O)CCC[C@@H]2C1=NCCN1` [A-54741], the inhibitory constant (Ki) in test [3] is 9.77 nM; in test [1] it was 776 nM.

For the compound `C=CCN1CCc2nc(N)sc2CC1` [B-HT 920], the inhibition constant Ki in test [1] was 955 nM; in test [2] it was 398 nM.

For the compound `C=CCN(C1=NCCN1)c1c(Cl)cccc1Cl` [CAS_33178-86-8], the inhibition constant (Ki) in test [1] is over 10000 nM; in test [2] it was 6030 nM.

In the case of `C1COC(NC(C2CC2)C2CC2)=N1` [rilmenidine], the Ki was found to be 724 nM in test [3], 4680 nM in test [1] and 1580 nM in test [2].

On to `NCC(O)c1ccc(O)c(O)c1` (stereo not drawn) [Noradrenaline,(+)], for which the Ki in test [3] was determined as 1410 nM; in test [1] it was 1350 nM.

For `COC1(C2=NCCN2)COc2ccccc2O1` (centres undefined) [RX821002], the Ki stood at 0.62 nM in test [3], 0.79 nM in test [1] and 0.36 nM in test [2].

`C[C@@H](Oc1c(Cl)cccc1Cl)C1=NCCN1` [CAS_81447-78-1] had an inhibition constant Ki in test [1] of 174 nM.

For the compound `Cc1cccc([C@@H](C)c2cnc[nH]2)c1C`, the inhibitory constant (Ki) in test [3] is 3.39 nM; in test [1], 95.5 nM.

Regarding `CCc1cccc(CC)c1NC1=NCCN1` [ST 91], the Ki was found to be 537 nM in test [3], 617 nM in test [1] and 575 nM in test [2].

(Values after BindingDB's records for doi:10.1016/s0006-2952(97)00631-x (Roche Bioscience, 1998).)
